Data reported in patent publication US12077503B2, “Substituted cyclic amides and their use as herbicides” (FMC CORPORATION, priority 2015, dated 2024).

How the values were obtained:
Type in all cases: in vivo
[1] = test system: Galium (catchweed bedstraw, Galium aparine); experiment: Test A postemergence
Outline: (§1)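 Seeded soil received test chemicals as a preemergence directed spray, and seedlings at one to two leaves, 2–10 cm tall, received them postemergence, in a non-phytotoxic, surfactant-containing solvent mixture. Pots were held in a greenhouse for approximately 10 d, then rated for injury from 0, no effect, to 100, complete control.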

[2] = test system: barnyardgrass (Echinochloa crus-galli); experiment: Test A postemergence
Outline: as §1

[3] = test system: blackgrass (Alopecurus myosuroides); experiment: Test A postemergence
Outline: as §1

[4] = test system: pigweed (Amaranthus retroflexus); experiment: Test A postemergence
Outline: as §1

[5] = test system: ryegrass, Italian (Italian ryegrass, Lolium multiflorum); experiment: Test A postemergence
Outline: as §1

[6] = test system: giant foxtail (Setaria faberii); experiment: Test A postemergence
Outline: as §1

[7] = test system: ragweed (common ragweed, Ambrosia elatior); experiment: Test A postemergence
Outline: as §1

[8] = test system: wheat (Triticum aestivum); experiment: Test A postemergence
Outline: as §1

Kochia (Kochia scoparia) [9] = experiment: Test A postemergence
Outline: as §1

corn (Zea mays) = experiment: Test A postemergence
Outline: as §1

[10] = test system: barnyardgrass (Echinochloa crus-galli); experiment: Test A preemergence
Outline: as §1

[11] = test system: pigweed (Amaranthus retroflexus); experiment: Test A preemergence
[12] = test system: ryegrass, Italian (Italian ryegrass, Lolium multiflorum); experiment: Test A preemergence
Outline: as §1

[13] = test system: giant foxtail (Setaria faberii); experiment: Test A preemergence
Outline: as §1

[14] = test system: ragweed (common ragweed, Ambrosia elatior); experiment: Test A preemergence
Outline: as §1

Kochia (Kochia scoparia) [15] = experiment: Test A preemergence
Outline: as §1

[16] = test system: sedge, umbrella (small-flower umbrella sedge, Cyperus difformis); experiment: Test B flooded paddy test; details: Flood, 250 g ai/ha, 0 to 100 scale where 0 is no effect and 100 is complete control; for Plant response rating, Sedge, Umbrella: 13 to 15 d
Outline: (§2)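 Evaluation by eye, against controls, occurred 13–15 d post-treatment in a greenhouse, using a 0 (no effect) to 100 (complete control) scale. Application was into the paddy water, 3 cm deep over the soil, on 2-leaf plants.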

[17] = test system: barnyardgrass (Echinochloa crus-galli); experiment: Test B flooded paddy test; details: Flood, 250 g ai/ha; for Plant response rating, Barnyardgrass: 0 to 100 scale where 0 is no effect and 100 is complete control, 13 to 15 d
Outline: as §2

[18] = test system: ducksalad (Heteranthera limosa); experiment: Test B flooded paddy test; details: Flood, 250 g ai/ha; for Plant response rating, Ducksalad: 0 to 100 scale where 0 is no effect and 100 is complete control, 13 to 15 d
Outline: as §2

rice (Oryra sativa) = experiment: Test B flooded paddy test; details: Flood, 250 g ai/ha; for Plant response rating, Rice: 0 to 100 scale where 0 is no effect and 100 is complete control, 13 to 15 d
Outline: as §2

[19] = 125 g ai/ha, postemergence, visual rating after approx. 10 d, 0 to 100 scale (0 no effect, 100 complete control)
[20] = 500 g ai/ha, postemergence, visual injury, 0 to 100 scale (0 no effect, 100 complete control), approx. 10 d
[21] = 125 g ai/ha, Preemergence, visual injury after approximately 10 d, 0 to 100 scale where 0 is no effect and 100 is complete control
[22] = 500 g ai/ha, preemergence, 0 to 100 scale, 0 = no effect, 100 = complete control
[23] = 125 g ai/ha, Postemergence, visual injury after approximately 10 d, 0 to 100 scale where 0 is no effect and 100 is complete control
[24] = 125 g ai/ha, Preemergence, visual injury rating after approximately 10 d
[25] = 500 g ai/ha, preemergence, visual injury rating about 10 d after treatment, 0 to 100 scale (0 no effect, 100 complete control)
[26] = scale of 0 to 100 where 0 is no effect and 100 is complete control

SMILES: Cc1ccc(C2CNC(=O)C2C(=O)Nc2cccc(F)c2F)cc1C(F)(F)F (centres unmarked) [Compound 642]
- Plant response rating, Galium [1, 19]: 50
- Plant response rating, Galium [1, 20]: 70
- Plant response rating, Barnyardgrass [2, 19]: 70
- Plant response rating, Barnyardgrass [2, 20]: 90
- Plant response rating, Blackgrass [3, 19]: 20
- Plant response rating, Blackgrass [3, 20]: 40
- Plant response rating, Pigweed [4, 19]: 0
- Plant response rating, Pigweed [4, 20]: 20
- Plant response rating, Ryegrass, Italian [5, 19]: 40
- Plant response rating, Ryegrass, Italian [5, 20]: 50
- Plant response rating, Foxtail, Giant [6, 19]: 20
- Plant response rating, Foxtail, Giant [6, 20]: 70
- Plant response rating, Ragweed [7, 19]: 0
- Plant response rating, Ragweed [7, 20]: 40
- Plant response rating, Wheat [8, 19]: 0
- Plant response rating, Wheat [8, 20]: 20
- Plant response rating, Kochia (Kochia (Kochia scoparia) [9]; [19]): 20
- Plant response rating, Kochia (Kochia (Kochia scoparia) [9]; [20]): 50
- Plant response rating, Corn (corn (Zea mays); [19]): 50
- Plant response rating, Corn (corn (Zea mays); [20]): 70
- Plant response rating, Barnyardgrass [10, 21]: 90
- Plant response rating, Barnyardgrass [10, 22]: 90
- Plant response rating, Pigweed [11, 21]: 50
- Plant response rating, Pigweed [11, 22]: 60
- Plant response rating, Ryegrass, Italian [12, 21]: 50
- Plant response rating, Ryegrass, Italian [12, 22]: 80
- Plant response rating, Foxtail, Giant [13, 21]: 90
- Plant response rating, Foxtail, Giant [13, 22]: 90
- Plant response rating, Ragweed [14, 21]: 0
- Plant response rating, Ragweed [14, 22]: 50
- Plant response rating, Kochia (Kochia (Kochia scoparia) [15]; [21]): 40
- Plant response rating, Kochia (Kochia (Kochia scoparia) [15]; [22]): 60
- Plant response rating, Sedge, Umbrella [16]: 0
- Plant response rating, Barnyardgrass [17]: 30
- Plant response rating, Ducksalad [18]: 100
- Plant response rating, Rice (rice (Oryra sativa)): 30

SMILES: CN1CC(c2cc(F)cc(F)c2)C(C(=O)Nc2ccccc2C(F)(F)F)C1=O (centres unmarked) [Compound 647]
- Plant response rating, Galium [1, 19]: 20
- Plant response rating, Galium [1, 20]: 50
- Plant response rating, Barnyardgrass [2, 19]: 80
- Plant response rating, Barnyardgrass [2, 20]: 90
- Plant response rating, Blackgrass [3, 19]: 20
- Plant response rating, Blackgrass [3, 20]: 60
- Plant response rating, Pigweed [4, 19]: 0
- Plant response rating, Pigweed [4, 20]: 0
- Plant response rating, Ryegrass, Italian [5, 19]: 0
- Plant response rating, Ryegrass, Italian [5, 20]: 0
- Plant response rating, Foxtail, Giant [6, 19]: 90
- Plant response rating, Foxtail, Giant [6, 20]: 90
- Plant response rating, Ragweed [7, 19]: 0
- Plant response rating, Ragweed [7, 20]: 10
- Plant response rating, Wheat [8, 19]: 20
- Plant response rating, Wheat [8, 20]: 50
- Plant response rating, Kochia (Kochia (Kochia scoparia) [9]; [19]): 0
- Plant response rating, Kochia (Kochia (Kochia scoparia) [9]; [20]): 20
- Plant response rating, Corn (corn (Zea mays); [19]): 10
- Plant response rating, Corn (corn (Zea mays); [20]): 40
- Plant response rating, Barnyardgrass [10, 21]: 90
- Plant response rating, Barnyardgrass [10, 22]: 90
- Plant response rating, Pigweed [11, 21]: 0
- Plant response rating, Pigweed [11, 22]: 60
- Plant response rating, Ryegrass, Italian [12, 21]: 30
- Plant response rating, Ryegrass, Italian [12, 22]: 30
- Plant response rating, Foxtail, Giant [13, 21]: 90
- Plant response rating, Foxtail, Giant [13, 22]: 100
- Plant response rating, Ragweed [14, 21]: 0
- Plant response rating, Ragweed [14, 22]: 40
- Plant response rating, Kochia (Kochia (Kochia scoparia) [15]; [21]): 0
- Plant response rating, Kochia (Kochia (Kochia scoparia) [15]; [22]): 0
- Plant response rating, Sedge, Umbrella [16]: 0
- Plant response rating, Barnyardgrass [17]: 75
- Plant response rating, Ducksalad [18]: 90
- Plant response rating, Rice (rice (Oryra sativa)): 40

SMILES: CC(C)Oc1cccc(C2CN(C)C(=O)C2C(=O)Nc2ccccc2C(F)(F)F)c1 (centres unmarked) [Compound 652]
- Plant response rating, Galium [1, 19]: 30
- Plant response rating, Galium [1, 20]: 50
- Plant response rating, Barnyardgrass [2, 19]: 90
- Plant response rating, Barnyardgrass [2, 20]: 90
- Plant response rating, Blackgrass [3, 19]: 60
- Plant response rating, Blackgrass [3, 20]: 70
- Plant response rating, Pigweed [4, 19]: 0
- Plant response rating, Pigweed [4, 20]: 20
- Plant response rating, Ryegrass, Italian [5, 19]: 50
- Plant response rating, Ryegrass, Italian [5, 20]: 70
- Plant response rating, Foxtail, Giant [6, 19]: 80
- Plant response rating, Foxtail, Giant [6, 20]: 90
- Plant response rating, Ragweed [7, 19]: 0
- Plant response rating, Ragweed [7, 20]: 0
- Plant response rating, Wheat [8, 19]: 0
- Plant response rating, Wheat [8, 20]: 40
- Plant response rating, Kochia (Kochia (Kochia scoparia) [9]; [19]): 0
- Plant response rating, Kochia (Kochia (Kochia scoparia) [9]; [20]): 0
- Plant response rating, Corn (corn (Zea mays); [19]): 30
- Plant response rating, Corn (corn (Zea mays); [20]): 60
- Plant response rating, Barnyardgrass [10, 21]: 90
- Plant response rating, Barnyardgrass [10, 22]: 90
- Plant response rating, Pigweed [11, 21]: 0
- Plant response rating, Pigweed [11, 22]: 30
- Plant response rating, Ryegrass, Italian [12, 21]: 60
- Plant response rating, Ryegrass, Italian [12, 22]: 60
- Plant response rating, Foxtail, Giant [13, 21]: 100
- Plant response rating, Foxtail, Giant [13, 22]: 100
- Plant response rating, Ragweed [14, 21]: 0
- Plant response rating, Ragweed [14, 22]: 0
- Plant response rating, Kochia (Kochia (Kochia scoparia) [15]; [21]): 0
- Plant response rating, Kochia (Kochia (Kochia scoparia) [15]; [22]): 30
- Plant response rating, Sedge, Umbrella [16]: 0
- Plant response rating, Barnyardgrass [17]: 40
- Plant response rating, Ducksalad [18]: 65
- Plant response rating, Rice (rice (Oryra sativa)): 0

SMILES: Cc1ccc([C@H]2CN(C)C(=O)[C@@H]2C(=O)Nc2ccccc2[S+](C)[O-])cc1F (some centres unmarked) [Compound 988]
- Plant response rating, Galium [1, 23]: 50
- Plant response rating, Barnyardgrass [2, 23]: 80
- Plant response rating, Blackgrass [3, 23]: 30
- Plant response rating, Pigweed [4, 23]: 0
- Plant response rating, Ryegrass, Italian [5, 23]: 20
- Plant response rating, Foxtail, Giant [6, 23]: 80
- Plant response rating, Ragweed [7, 23]: 0
- Plant response rating, Wheat [8, 23]: 30
- Plant response rating, Kochia (Kochia (Kochia scoparia) [9]; [23]): 10
- Plant response rating, Corn (corn (Zea mays); [23]): 20
- Barnyardgrass plant response rating (0 to 100 scale, 0 is no effect, 100 is complete control) [10, 24]: 90
- Barnyardgrass plant response rating [10, 25]: 90
- Pigweed plant response rating (0 to 100 scale, 0 is no effect, 100 is complete control) [11, 24]: 30
- Pigweed plant response rating [11, 25]: 40
- Ryegrass, Italian plant response rating (0 to 100 scale, 0 is no effect, 100 is complete control) [12, 24]: 0
- Ryegrass, Italian plant response rating [12, 25]: 20
- Foxtail, Giant plant response rating (0 to 100 scale, 0 is no effect, 100 is complete control) [13, 24]: 90
- Foxtail, Giant plant response rating [13, 25]: 90
- Ragweed plant response rating (0 to 100 scale, 0 is no effect, 100 is complete control) [14, 24]: 50
- Ragweed plant response rating [14, 25]: 80
- Kochia plant response rating (0 to 100 scale, 0 is no effect, 100 is complete control) (Kochia (Kochia scoparia) [15]; [24]): 30
- Kochia plant response rating (Kochia (Kochia scoparia) [15]; [25]): 80
- Sedge, Umbrella plant response rating [16]: 0
- Barnyardgrass plant response rating [17, 26]: 75
- Ducksalad plant response rating [18, 26]: 100
- Rice plant response rating (rice (Oryra sativa); [26]): 20
